Measurements from patent publication US20240269050A1, “ELECT[…] FOR DELIVERING A COMPOSITION COMPRISING AT LEAST ONE HYDROXY ACID COMPOUND” (L'OREAL, priority 2021, published 2024).

Conditions: composition applied with electroporation (Fusion Meso Xpert, ftrain 0.4 Hz, negative polarity) compared with topical application of an identical composition; human skin sample; FIG. 5
Description: To test the effect of the device, a sample of human skin is peripherally attached to a support, with the counterelectrode of the electroporation device placed between the inner face of the skin and the support. The electrode of the electroporation device is placed in contact with the outer face of the skin sample. The case of the electroporation device is immobilized by a support. The support is placed on an orbital shaker, so that the electrode moves over the surface of the skin.
The frequency (ftrain) with which the pulse trains follow each other is 0.4 Hz, the duration Ton ranges from 0.5 to 2 seconds, and the chosen polarity is negative, i.e. the electrode is at a negative potential with respect to the counterelectrode. The apparatus is used in the highest energy mode. […] The pulses of frequency fpulse are, for example, of maximum amplitude deltaV, within the pulse train, this amplitude deltaV being less than or equal to 30% of the voltage Vmean, as an absolute value.
The cosmetic compositions are applied before the apparatus is put in place.
Firstly, compositions 1 to 3 are applied topically, and secondly, the application of compositions 1 to 3 is combined with electroporation.
The skin is removed from the experimental system and then analysed to determine the amount of salicylic acid that has penetrated.

With O=C(O)c1ccccc1O [salicylic acid] as the compound, how does the “amount of salicylic acid that has penetrated” value read?
The value was “much higher”.
